US20240083903A1, “ARYL ETHER COMPOUNDS AS TEAD MODULATORS” (Merck Sharp& Dohme LLC, priority 2021, published 2024)

What follows are compounds tested on TEAD Reporter-MCF7 cell line (assay: YAP/TEAD cellular activity assay: inhibition of TEAD-Luc activity in TEAD Reporter-MCF7 cell line). Conditions: Homo sapiens, MCF7, 24 h, TEAD Reporter-MCF7 cells, 24 hours incubation with compound, luciferase readout.
Assay type: cell-based, human
Procedure, shortened: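 MCF7 cells stably carrying a TEAD-responsive firefly luciferase reporter were seeded at 10,000 cells/well, grown 20-24 h, then exposed to compounds for 24 h at 37° C. Luciferase read by ONE-Glo EX luminescence; percent inhibition and EC50 derived.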

Row | SMILES | EC50 [nM]
1 | CNS(=O)(=O)c1ccc(Oc2ccc(C(F)(F)F)cc2)c(-c2cn3c(n2)CCCC3)c1 [1-9, N-methyl-3-(5,6,7,8-tetrahydroimidazo [1,2-a]pyridin-2-yl)-4-[4-(trifluoromethyl)phenoxy]benzene-1-sulfonamide] | 12.8
2 | CNS(=O)(=O)c1ccc(Oc2ccc(C(C)=O)cc2)c(-c2cn3c(n2)CCC3)c1 [1-50, 4-(4-acetylphenoxy)-3-(6,7-dihydro-5H-pyrrolo[1,2-a]imidazol-2-yl)-N-methylbenzene-1-sulfonamide] | 416
3 | CNS(=O)(=O)c1ccc(Oc2ccc(C(F)(F)F)cc2)c(-c2cc3ccccn3n2)c1 [1-35, N-methyl-3-(pyrazolo[1,5-a]pyridin-2-y1)-4-[4-(trifluoromethyl)phenoxy]benzene-1-sulfonamide] | 99.4
4 | CNS(=O)(=O)c1ccc(Oc2ccc(C(F)(F)F)cc2)c(-c2ccc3c(c2)C(=O)N(CC2CC2)C3)c1 [2-11, 3-[2-(cyclopropylmethyl)-3-oxo-2,3-dihydro-1H-isoindol-5-yl]-N-methyl-4-[4-(trifluoromethyl)phenoxy]benzene-1-sulfonamide] | 338
5 | CNS(=O)(=O)c1ccc(Oc2ccc(C(F)(F)F)cc2)c(-c2ccc3c(c2)CC(=O)N3)c1 [2-4, N-methyl-3-(2-oxo-2,3-dihydro-1H-indol-5-yl)-4-[4-(trifluoromethyl)phenoxy]benzene-1-sulfonamide] | 5480
6 | CNS(=O)(=O)c1ccc(Oc2ccc(C(F)F)cc2)c(-c2cnn3c2OCC3)c1 [2-33, 4-[4-(difluoromethyl)phenoxy]-3-(2,3-dihydropyrazolo[5,1-b] [1,3]oxazol-7-yl)-N-methylbenzene-1-sulfonamide] | 356
7 | CNS(=O)(=O)c1ccc(Oc2ccc(C(F)(F)F)cc2)c(-c2cccc3cnccc23)c1 [2-20, 3-(isoquinolin-5-yl)-N-methyl-4-[4-(trifluoromethyl)phenoxy]benzene-1-sulfonamide] | 4780
8 | CNS(=O)(=O)c1ccc(Oc2ccc(C(F)(F)F)cc2)c(-c2cn3ccccc3n2)c1 [1-27, 3-(imidazo[1,2-a]pyridin-2-yl)-N-methyl-4-[4-(trifluoromethyl)phenoxy]benzene-1-sulfonamide] | 28.4
9 | CNS(=O)(=O)c1ccc(Oc2ccc(C(F)(F)F)cc2)c(-c2ccc3nccnc3c2)c1 [2-27, N-methyl-3-(quinoxalin-6-yl)-4-[4-(trifluoromethyl)phenoxy]benzene-1-sulfonamide] | 410
10 | CNS(=O)(=O)c1ccc(Oc2ccc(C(F)(F)F)cc2)c(-c2cnc3ncccn23)c1 [1-26, 3-(imidazo[1,2-a]pyrimidin-3-yl)-N-methyl-4-[4-(trifluoromethyl)phenoxy]benzene-1-sulfonamide] | 335
11 | CNS(=O)(=O)c1ccc(Oc2ccc(C(F)(F)F)cc2)c(-c2cncc3ccccc23)c1 [2-19, 3-(isoquinolin-4-yl)-N-methyl-4-[4-(trifluoromethyl)phenoxy]benzene-1-sulfonamide] | 8860
12 | CNS(=O)(=O)c1ccc(Oc2ccc(C(F)(F)F)cc2)c(-c2cnc3c(N)cccn23)c1 [1-21, 3-(8-aminoimidazo[1,2-a]pyridin-3-yl)-N-methyl-4-[4-(trifluoromethyl)phenoxy]benzene-1-sulfonamide] | 9280
13 | CNS(=O)(=O)c1ccc(Oc2ccc(C(F)(F)F)cc2)c(-c2ccc3nc(OC)ccc3c2)c1 [2-29, 3-(2-methoxyquinolin-6-yl)-N-methyl-4-[4-(trifluoromethyl)phenoxy]benzene-1-sulfonamide] | 89.7
14 | CNS(=O)(=O)c1ccc(Oc2cc(C(F)(F)F)cc(C(F)(F)F)c2)c(-c2cnn3c2CCC3)c1 [3-2, 4-[3,5-bis(trifluoromethyl)phenoxy]-3-(5,6-dihydro-4H-pyrrolo[1,2-b]pyrazol-3-yl)-N-methylbenzene-1-sulfonamide] | 9140
15 | CNS(=O)(=O)c1ccc(Oc2ccc(C(F)(F)F)cc2)c(-c2cnn3c2OCC3)c1 [2-1, 3-(2,3-Dihydropyrazolo[5,1-b]oxazol-7-yl)-N-methyl-4-(4-(trifluoromethyl)phenoxy)benzenesulfonamide] | 26
16 | CNS(=O)(=O)c1ccc(Oc2ccc(C(F)(F)F)cc2)c(-c2cnc3ccc(N)cn23)c1 [1-24, 3-(6-aminoimidazo[1,2-a]pyridin-3-yl)-N-methyl-4-[4-(trifluoromethyl)phenoxy]benzene-1-sulfonamide] | 5390
17 | CNS(=O)(=O)c1ccc(Oc2ccc(C(F)(F)F)cc2)c(-c2ccc3[nH]c(=O)[nH]c3c2)c1 [2-5, N-methyl-3-(2-oxo-2,3-dihydro-1H-benzimidazol-5-yl)-4-[4-(trifluoromethyl)phenoxy]benzene-1-sulfonamide] | 4540
18 | CNS(=O)(=O)c1ccc(Oc2ccc(C(F)(F)F)cc2)c(-c2cnc3c(c2)OCCN3C)c1 [2-18, N-methyl-3-(4-methyl-3,4-dihydro-2H-pyrido[3,2-b][1,4]oxazin-7-yl)-4-[4-(trifluoromethyl)phenoxy]benzene-1-sulfonamide] | 606
19 | CNS(=O)(=O)c1ccc(Oc2ccc(C(F)(F)F)cc2)c(-c2ncc3cnccn23)c1 [1-7, 3-(imidazo[1,5-a]pyrazin-3-yl)-N-methyl-4-[4-(trifluoromethyl)phenoxy]benzene-1-sulfonamide] | 5350
20 | CNS(=O)(=O)c1ccc(Oc2cccc(OC(F)(F)F)c2)c(-c2cnn3c2CCC3)c1 [3-5, 3-(5,6-dihydro-4H-pyrrolo[1,2-b]pyrazol-3-yl)-N-methyl-4-[3-(trifluoromethoxy)phenoxy]benzene-1-sulfonamide] | 3090

More lines, now with the values ahead:

Row | EC50 [nM] | SMILES
21 | 22.3 | CNS(=O)(=O)c1ccc(Oc2cccc(C(F)(F)F)c2)c(-c2cn3c(n2)CCC3)c1 [4-15, 3-(6,7-dihydro-5H-pyrrolo[1,2-a]imidazol-2-yl)-N-methyl-4-[3-(trifluoromethyl)phenoxy]benzene-1-sulfonamide]
22 | 35.2 | CCNS(=O)(=O)c1ccc(Oc2ccc(C(F)(F)F)cc2)c(-c2cn3c(n2)CCC3)c1 [7-2, 3-(6,7-dihydro-5H-pyrrolo[1,2-a]imidazol-2-yl)-N-ethyl-4-[4-(trifluoromethyl)phenoxy]benzene-1-sulfonamide]
23 | 304 | CNS(=O)(=O)c1ccc(Oc2ccc(C(F)(F)F)cc2)c(-c2cn3c(n2)C(C)(O)CC3)c1 (centres unmarked) [9-2, 3-(7-Hydroxy-7-methyl-6,7-dihydro-5H-pyrrolo[1,2-a]imidazol-2-yl)-N-methyl-4-(4-(trifluoromethyl)phenoxy)benzenesulfonamide]
24 | 21.5 | CNS(=O)(=O)c1ccc(Oc2ccc(F)cc2)c(-c2cc3n(n2)CCC3)c1 [8-2, 3-(5,6-dihydro-4H-pyrrolo[1,2-b]pyrazol-2-yl)-4-(4-fluorophenoxy)-N-methylbenzene-1-sulfonamide]
25 | 23.8 | CNS(=O)(=O)c1ccc(Oc2ccc(C)cc2)c(-c2cn3c(n2)CCC3)c1 [4-7, 3-(6,7-dihydro-5H-pyrrolo [1,2-a]imidazol-2-yl)-N-methyl-4-(4-methylphenoxy)benzene-1-sulfonamide]
26 | 45.7 | CNS(=O)(=O)c1ccc(Oc2ccc(OC)cc2)c(-c2cn3c(n2)CCC3)c1 [4-14, 3-(6,7-dihydro-5H-pyrrolo[1,2-a]imidazol-2-yl)-4-(4-methoxyphenoxy)-N-methylbenzene-1-sulfonamide]
27 | 5.2 | CNS(=O)(=O)c1ccc(Oc2ccc(Cl)c(C(F)(F)F)c2)c(-c2cn3c(n2)CCC3)c1 [4-16, 4-[4-chloro-3-(trifluoromethyl)phenoxy]-3-(6,7-dihydro-5H-pyrrolo[1,2-a]imidazol-2-yl)-N-methylbenzene-1-sulfonamide]
28 | 207 | CNS(=O)(=O)c1ccc(Oc2ccc(F)cc2)c(-c2cn3c(n2)CCC3)c1 [4-13, 3-(6,7-dihydro-5H-pyrrolo [1,2-a]imidazol-2-yl)-4-(4-fluorophenoxy)-N-methylbenzene-1-sulfonamide]
29 | 46.6 | CNS(=O)(=O)c1ccc(Oc2ccc(C(F)F)cc2)c(-c2cc3n(n2)CCC3)c1 [8-4, 4-[4-(difluoromethyl)phenoxy]-3-(5,6-dihydro-4H-pyrrolo[1,2-b]pyrazol-2-yl)-N-methylbenzene-1-sulfonamide]
30 | 146 | CNS(=O)(=O)c1ccc(Oc2cccc(F)c2)c(-c2cn3c(n2)CCC3)c1 [4-6, 3-(6,7-dihydro-5H-pyrrolo [1,2-a]imidazol-2-yl)-4-(3-fluorophenoxy)-N-methylbenzene-1-sulfonamide]
31 | 32.3 | CNS(=O)(=O)c1ccc(Oc2ccc3c(c2)CCC3)c(-c2cn3c(n2)CCC3)c1 [4-4, 4-[(2,3-dihydro-1H-inden-5-yl)oxy]-3-(6,7-dihydro-5H-pyrrolo[1,2-a]imidazol-2-yl)-N-methylbenzene-1-sulfonamide]
32 | 1.3 | CNS(=O)(=O)c1cnc(Oc2ccc(C(F)(F)F)cc2)c(-c2cc3n(n2)CCC3)c1 [8-3, 5-(5,6-dihydro-4H-pyrrolo[1,2-b]pyrazol-2-yl)-N-methyl-6-[4-(trifluoromethyl)phenoxy]pyridine-3-sulfonamide]

Same assay, conditions: TEAD Reporter-MCF7 cells, 24 hours incubation with compound, luciferase readout

Row | EC50 [nM] | SMILES
33 | 33.6 | CNS(=O)(=O)c1ccc(Oc2ccc(C(F)(F)F)cc2)c(-c2cn3c(n2)C(C)CC3)c1 (single isomer, unassigned) [1-44, (S)- or (R)-N-methyl-3-(7-methyl-6,7-dihydro-5H-pyrrolo[1,2-a]imidazol-2-yl)-4-[4-(trifluoromethyl)phenoxy]benzene-1-sulfonamide]
34 | 55.9 | CNS(=O)(=O)c1ccc(Oc2ccc(F)cc2F)c(-c2cn3c(n2)CCC3)c1 [4-21, 4-(2,4-difluorophenoxy)-3-(6,7-dihydro-5H-pyrrolo[1,2-a]imidazol-2-yl)-N-methylbenzene-1-sulfonamide]
35 | 28.4 | CNS(=O)(=O)c1ccc(Oc2ccc(C(F)(F)F)cc2)c(-c2cn3c(n2)OC(C)C3)c1 (single isomer, unassigned) [1-38, (R)- or (S)-N-methyl-3-(2-methyl-2,3-dihydroimidazo[2,1-b] [1,3]oxazol-6-yl)-4-[4-(trifluoromethyl)phenoxy]benzene-1-sulfonamide]
